{
  "source": "patent US20080045451A1",
  "about": "“Novel thymidylate synthase mutants” (priority 2000, published 2008)",
  "key": {"3T3 fibroblasts": {"tested_on": "3T3 fibroblasts", "test": "Cytotoxicity of 5-FU in 3T3 fibroblasts with or without PTD-4-TSD254E fusion protein (Hoechst 33342)", "format": "cell-based", "conditions": "24 h", "protocol": "3T3 fibroblasts cells (available by the American Type […] Collection (ATCC, Rockville, Md., USA) were seeded with a cell density of 1×10^4 cells per well into 96-well-cell culture plates. DMEM medium with 10% fetal calve serum is used as cell culture medium, and cells are cultured in a CO2-incubator at 37° C. and 5% CO2. The cell culture medium is aspirated after 24 hours and substituted by 200 μL/well of the test assay and cells are incubated for another 24 hours. Subsequently the portion of viable cells was determined as described below. The test assays are composed as follows:\nControls without 5-FU and without PTD-4-TSD2S4E-fusion protein: 200 μL/well of DMEM with 10%.fetal calve serum […]\nAfter completion of the 24-hour treatment of the cells in the control- or test assaysas described above, the medium is removed from the 96-well-plates and substituted by 200 μL/well DMEM medium with 10% fetal calve serum and 10 μg/mL of the DNA-binding fluorescent dye H33342 (Engelmann et al., 2001). […] Subsequently, 100 μL well PBS is added and the fluorescence is quantified at an […]. The intensity of the fluorescence signal is a measure for the number of viable cells. […] The fluorescence intensity of these samples is set as 100%. […] The ED50-values were calculated using the nonlinear regression. […]"}, "[1]": {"tested_on": "primary human gingival fibroblasts", "test": "Cytotoxicity of 5-FU in primary human gingival fibroblasts with or without PTD-4-TSD254E fusion protein (Hoechst 33342)", "format": "cell-based", "conditions": "10 mM 5-FU, 24 h, without PTD-4-TSD254E, FIG. 7", "protocol": "After completion of the 24-hour treatment of the cells in the control- or test assaysas described above, the medium is removed from the 96-well-plates and substituted by 200 μL/well DMEM medium with 10% fetal calve serum and 10 μg/mL of the DNA-binding fluorescent dye H33342 (Engelmann et al., 2001). The plates are kept at 37° C. for 30 minutes and are then washed twice with each 100 μL/well phosphaste-buffered sodium chloride solution (PBS, “phosphate buffered saline”). Subsequently, 100 μL well PBS is added and the fluorescence is quantified at an […]. The intensity of the fluorescence signal is a measure for the number of viable cells. The fluorescence background signal (dye incubation without cells) is subtracted from the raw data of the fluorescence readings and the calculation of the %-share of viable cells is made related to the fluorescence reading of cells, which were not treated with 5-FU. The fluorescence intensity of these samples is set as 100%. The dosage of 5-FU that kills 50% of the cells (ED50), is determined using the same method. […] The ED50-values were calculated using the nonlinear regression. This method to determine the ED50 has been already described (Engelmann et al., 2001). […]"}, "[2]": {"conditions": "Ho et al., 2001; cited from earlier work"}},
  "data": [
    {"compound": "O=c1[nH]cc(F)c(=O)[nH]1", "note": "[Mutant 5-FU, 5-fluorouracil]", "values": [
      {"measurement": "survival of cells", "setting": "3T3 fibroblasts; 2.5 μM 5-FU, absence of PTD-4-TSD254E, FIG. 6", "value": 50, "unit": "%"},
      {"measurement": "EC50", "setting": "3T3 fibroblasts; 3T3-fibroblast cell line, read-out: ED50 (dosage of 5-FU that kills 50% of the cells)", "value": 2500, "unit": "nM"},
      {"measurement": "survival of cells", "setting": "[1]", "value": 70, "unit": "%"}
    ]},
    {"compound": "PTD-4: optimized TAT sequence YARAAARQARA (SEQ ID NO: 6), protein transduction domain 4 (synthetic TAT sequence optimized by random mutagenisis)", "values": [
      {"measurement": "transduction activity in comparison to the original TAT sequence", "setting": "[2]", "value": 33, "unit": "fold"}
    ]}
  ]
}
